Where “and” joins values, the source holds several entries; their conditions need not be identical. Equal entries are not always repeated. Toxic doses and inconclusive results are not listed.
Test system: CD2F1 mice, L1210 leukemia ip, survival T/C
Test: NCI In Vivo Anticancer Drug Screen. Data for tumor model L1210 Leukemia (intraperitoneal) in CD2F1 (CDF1) mice
Settings: higher = longer survival
Summary of the method: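 Implant tumor; dose compound or vehicle; measure endpoint in both groups; report treated divided by control.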

[1] = endpoint: mean survival time, dose: 25.0 mg/kg/injection, schedule: Q01DX009 (ip), vehicle: saline with Tween-80
[2] = endpoint: mean survival time, dose: 50.0 mg/kg/injection, schedule: Q01DX009 (ip), vehicle: saline with Tween-80
[3] = endpoint: mean survival time, dose: 100.0 mg/kg/injection, schedule: Q01DX009 (ip), vehicle: saline with Tween-80
[4] = endpoint: mean survival time, dose: 100.0 mg/kg/injection, schedule: Q01DX001 (ip), vehicle: saline with Tween-80
[5] = endpoint: mean survival time, dose: 50.0 mg/kg/injection, schedule: Q01DX009 (ip), vehicle: Klucel (hydroxypropylcellulose) (HPC)
[6] = endpoint: mean survival time, dose: 100.0 mg/kg/injection, schedule: Q04DX003 (ip), vehicle: saline with Tween-80
[7] = endpoint: mean survival time, dose: 200.0 mg/kg/injection, schedule: Q04DX003 (ip), vehicle: saline with Tween-80
[8] = endpoint: mean survival time, dose: 400.0 mg/kg/injection, schedule: Q04DX003 (ip), vehicle: saline with Tween-80

CCN(CC)C(=O)c1cccc(COc2ccc(N3C(N)=NC(N)=NC3(C)C)cc2Cl)c1
T/C (endpoint: mean survival time, dose: 0.2 mg/kg/injection, schedule: Q01DX009 (ip), vehicle: saline): 98 % of control | T/C (endpoint: mean survival time, dose: 0.4 mg/kg/injection, schedule: Q01DX009 (ip), vehicle: saline): 98 % of control | T/C (endpoint: mean survival time, dose: 0.8 mg/kg/injection, schedule: Q01DX009 (ip), vehicle: saline): 100 % of control | T/C (endpoint: mean survival time, dose: 1.56 mg/kg/injection, schedule: Q01DX009 (ip), vehicle: saline): 96 % of control | T/C (endpoint: mean survival time, dose: 3.13 mg/kg/injection, schedule: Q01DX009 (ip), vehicle: saline): 100 % of control | T/C (endpoint: mean survival time, dose: 6.25 mg/kg/injection, schedule: Q01DX009 (ip), vehicle: saline): 96 % of control | T/C (endpoint: mean survival time, dose: 12.5 mg/kg/injection, schedule: Q01DX009 (ip), vehicle: saline): 100 % of control

NCC1OC(OC2C(N)CC(N)C(O)C2OC2OC(CO)C(O)C2O)C(N)C(O)C1O (stereo unspecified)
T/C (endpoint: mean survival time, dose: 75.0 mg/kg/injection, schedule: Q04DX003 (ip), vehicle: saline): 96 % of control | T/C (endpoint: mean survival time, dose: 150.0 mg/kg/injection, schedule: Q04DX003 (ip), vehicle: saline): 102 % of control | T/C (endpoint: mean survival time, dose: 300.0 mg/kg/injection, schedule: Q04DX003 (ip), vehicle: saline): 100 % of control

CN(Cc1cnc2nc(N)nc(N)c2n1)c1c(Cl)cc(C(=O)NC(CCC(=O)O)C(=O)O)cc1Cl (stereo unspecified)
T/C (endpoint: mean survival time, dose: 44.0 mg/kg/injection, schedule: Q01DX009 (ip), vehicle: sodium bicarbonate): 224 % of control | T/C (endpoint: mean survival time, dose: 67.0 mg/kg/injection, schedule: Q01DX009 (ip), vehicle: sodium bicarbonate): 256 % of control | T/C (endpoint: mean survival time, dose: 100.0 mg/kg/injection, schedule: Q01DX009 (ip), vehicle: sodium bicarbonate): 193 % of control | T/C (endpoint: mean survival time, dose: 133.0 mg/kg/injection, schedule: Q01DX009 (ip), vehicle: sodium bicarbonate): 170 % of control | T/C (endpoint: mean survival time, dose: 150.0 mg/kg/injection, schedule: Q01DX009 (ip), vehicle: sodium bicarbonate): 116 % of control | T/C (endpoint: mean survival time, dose: 160.0 mg/kg/injection, schedule: Q01DX009 (ip), vehicle: sodium bicarbonate): 123 % of control | T/C (endpoint: median survival time, dose: 125.0 mg/kg/injection, schedule: Q01DX009 (ip), vehicle: sodium bicarbonate): 123 % of control | T/C (endpoint: median survival time, dose: 150.0 mg/kg/injection, schedule: Q01DX009 (ip), vehicle: sodium bicarbonate): 112 % of control

CCCCCCCCCCCCCCC/C(=C\c1ccc2ccccc2c1)[N+](=O)[O-]
T/C (endpoint: mean survival time, dose: 75.0 mg/kg/injection, schedule: Q01DX001 (ip), vehicle: other): 95 % of control | T/C (endpoint: mean survival time, dose: 150.0 mg/kg/injection, schedule: Q01DX001 (ip), vehicle: other): 89 % of control | T/C (endpoint: mean survival time, dose: 300.0 mg/kg/injection, schedule: Q01DX001 (ip), vehicle: other): 102 % of control

O=C(O)c1ccccc1/C=C/c1ccc([N+](=O)[O-])cc1
T/C [1]: 98 % of control | T/C [2]: 95 % of control | T/C [3]: 104 % of control

O=C(O)Cc1ccc(O)cc1
T/C [4]: 101 % of control | T/C (endpoint: mean survival time, dose: 200.0 mg/kg/injection, schedule: Q01DX001 (ip), vehicle: saline with Tween-80): 101 % of control | T/C (endpoint: mean survival time, dose: 400.0 mg/kg/injection, schedule: Q01DX001 (ip), vehicle: saline with Tween-80): 108 % of control

O=C(N/N=C/c1ccc(Cl)cc1Cl)c1ccccc1
T/C [5]: 110 % of control | T/C (endpoint: mean survival time, dose: 100.0 mg/kg/injection, schedule: Q01DX009 (ip), vehicle: Klucel (hydroxypropylcellulose) (HPC)): 103 % of control | T/C (endpoint: mean survival time, dose: 200.0 mg/kg/injection, schedule: Q01DX009 (ip), vehicle: Klucel (hydroxypropylcellulose) (HPC)): 86 % of control

Cc1nnc(-c2cn(C3OC(CO)C(O)C3O)c3ncnc(N)c23)nc1C (stereo unspecified)
T/C (endpoint: mean survival time, dose: 100.0 mg/kg/injection, schedule: Q01DX005 (ip), vehicle: saline): 97 % of control | T/C (endpoint: mean survival time, dose: 200.0 mg/kg/injection, schedule: Q01DX005 (ip), vehicle: saline): 96 % of control

C1CCC(NC2CCCCC2)CC1
T/C (endpoint: mean survival time, dose: 25.0 mg/kg/injection, schedule: Q01DX001 (ip), vehicle: saline with Tween-80): 104 % of control | T/C (endpoint: mean survival time, dose: 50.0 mg/kg/injection, schedule: Q01DX001 (ip), vehicle: saline with Tween-80): 101 % of control | T/C (endpoint: median survival time, dose: 25.0 mg/kg/injection, schedule: Q01DX009 (ip), vehicle: saline): 94 % of control | T/C (endpoint: median survival time, dose: 50.0 mg/kg/injection, schedule: Q01DX009 (ip), vehicle: saline): 100 % of control | T/C (endpoint: median survival time, dose: 100.0 mg/kg/injection, schedule: Q01DX009 (ip), vehicle: saline): 94 % of control | T/C (endpoint: median survival time, dose: 200.0 mg/kg/injection, schedule: Q01DX009 (ip), vehicle: saline): 97 % of control | T/C (endpoint: median survival time, dose: 400.0 mg/kg/injection, schedule: Q01DX009 (ip), vehicle: saline): 100 % of control

O=C(/C=C\c1ccnc2ccccc12)c1ccc([N+](=O)[O-])cc1
T/C (endpoint: mean survival time, dose: 12.5 mg/kg/injection, schedule: Q01DX009 (ip), vehicle: other): 94 % of control | T/C (endpoint: mean survival time, dose: 25.0 mg/kg/injection, schedule: Q01DX009 (ip), vehicle: other): 89 % of control | T/C (endpoint: mean survival time, dose: 50.0 mg/kg/injection, schedule: Q01DX009 (ip), vehicle: other): 89 % of control | T/C (endpoint: mean survival time, dose: 100.0 mg/kg/injection, schedule: Q01DX009 (ip), vehicle: other): 92 % of control | T/C [6]: 97 % of control | T/C (endpoint: mean survival time, dose: 200.0 mg/kg/injection, schedule: Q01DX009 (ip), vehicle: other): 97 % of control | T/C [7]: 94 % of control | T/C [8]: 91 % of control

C=CCON(C)c1ccccc1
T/C [3]: 94 % of control | T/C (endpoint: mean survival time, dose: 200.0 mg/kg/injection, schedule: Q01DX009 (ip), vehicle: saline with Tween-80): 90 % of control | T/C (endpoint: mean survival time, dose: 400.0 mg/kg/injection, schedule: Q01DX009 (ip), vehicle: saline with Tween-80): 99 % of control

S=c1cc[nH]c(=S)[nH]1
T/C (endpoint: mean survival time, dose: 12.5 mg/kg/injection, schedule: Q01DX009 (ip), vehicle: Klucel (hydroxypropylcellulose) (HPC)): 102 % of control | T/C (endpoint: mean survival time, dose: 25.0 mg/kg/injection, schedule: Q01DX009 (ip), vehicle: Klucel (hydroxypropylcellulose) (HPC)): 98 % of control | T/C [5]: 101 % of control

COC(=O)C12CCC1(Cl)CC2 (stereo unspecified)
T/C (endpoint: mean survival time, dose: 100.0 mg/kg/injection, schedule: Q04DX003 (ip), vehicle: saline): 98 % of control | T/C (endpoint: mean survival time, dose: 200.0 mg/kg/injection, schedule: Q04DX003 (ip), vehicle: saline): 93 % of control | T/C (endpoint: mean survival time, dose: 400.0 mg/kg/injection, schedule: Q04DX003 (ip), vehicle: saline): 96 % of control

CCCCC(C(=O)O)c1ccccc1 (stereo unspecified)
T/C (endpoint: mean survival time, dose: 100.0 mg/kg/injection, schedule: Q01DX009 (ip), vehicle: saline): 98 % of control | T/C (endpoint: mean survival time, dose: 200.0 mg/kg/injection, schedule: Q01DX009 (ip), vehicle: saline): 98 % of control | T/C (endpoint: mean survival time, dose: 400.0 mg/kg/injection, schedule: Q01DX009 (ip), vehicle: saline): 101 % of control

COc1cc(OC)c(NC(=O)Nc2ccc(NC(C)=O)cc2)cc1Cl
T/C (endpoint: mean survival time, dose: 12.5 mg/kg/injection, schedule: Q01DX009 (ip), vehicle: saline with Tween-80): 103 % of control | T/C [1]: 103 % of control | T/C [2]: 103 % of control

Cc1[nH]c2ccccc2c1C1=CC(=O)c2ccccc2C1=O
T/C [6]: 106 % of control | T/C [7]: 104 % of control | T/C [8]: 104 % of control

CCOC(OCC)C(=O)OCC(=O)[C@]1(O)Cc2c(O)c3c(c(O)c2[C@@H](OC2CC(N)C(O)C(C)O2)C1)C(=O)c1c(OC)cccc1C3=O (stereo partly specified)
T/C (endpoint: mean survival time, dose: 0.13 mg/kg/injection, schedule: Q01DX009 (ip), vehicle: saline): 104 % of control | T/C (endpoint: mean survival time, dose: 0.25 mg/kg/injection, schedule: Q01DX009 (ip), vehicle: saline): 118 % of control and 107 % of control | T/C (endpoint: mean survival time, dose: 0.5 mg/kg/injection, schedule: Q01DX009 (ip), vehicle: saline): 110 % of control | T/C (endpoint: mean survival time, dose: 1.0 mg/kg/injection, schedule: Q01DX009 (ip), vehicle: saline): 174 % of control | T/C (endpoint: mean survival time, dose: 2.0 mg/kg/injection, schedule: Q01DX009 (ip), vehicle: saline): 160 % of control | T/C (endpoint: mean survival time, dose: 4.0 mg/kg/injection, schedule: Q01DX009 (ip), vehicle: saline): 104 % of control

CSC(=NC#N)N(C)C
T/C (endpoint: mean survival time, dose: 25.0 mg/kg/injection, schedule: Q04DX003 (ip), vehicle: saline sonified): 105 % of control | T/C (endpoint: mean survival time, dose: 50.0 mg/kg/injection, schedule: Q04DX003 (ip), vehicle: saline sonified): 95 % of control | T/C [4]: 114 % of control

OCCC(c1ccccc1)C1CCCCN1 (stereo unspecified)
T/C (endpoint: mean survival time, dose: 75.0 mg/kg/injection, schedule: Q01DX001 (ip), vehicle: saline): 101 % of control | T/C (endpoint: mean survival time, dose: 150.0 mg/kg/injection, schedule: Q01DX001 (ip), vehicle: saline): 100 % of control

— PubChem BioAssay AID256 (DTP/NCI, 2004)
